From the supplement of paper PMC10307832

Legend:
Experiment in all cases: relative viability (nuclei count vs DMSO), 5 days (fraction); higher = more cells survive
CUDC-101 + Lapatinib = compound: C#Cc1cccc(Nc2ncnc3cc(OC)c(OCCCCCCC(=O)NO)cc23)c1 [CUDC-101] + CS(=O)(=O)CCNCc1ccc(-c2ccc3ncnc(Nc4ccc(OCc5cccc(F)c5)c(Cl)c4)c3c2)o1 [Lapatinib] (partner 2 µM)
Outline: (§1)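 The day after seeding in 1536-well plates, lung cancer cell lines were treated by pin tool with a single drug, or with a fixed anchor-drug dose together with five library-drug doses (not always all listed) in √10 steps. After 5 days, a combined fix-and-stain solution (final 0.05% Triton X-100, 1% formaldehyde, 1 ug/ml Hoechst) was added. Nuclei counted on 4× images gave relative viability as treated counts over vehicle counts, reported as the median of duplicate plates.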

CUDC-101 + Foretinib = compound: C#Cc1cccc(Nc2ncnc3cc(OC)c(OCCCCCCC(=O)NO)cc23)c1 [CUDC-101] + COc1cc2c(Oc3ccc(NC(=O)C4(C(=O)Nc5ccc(F)cc5)CC4)cc3F)ccnc2cc1OCCCN1CCOCC1 [Foretinib] (partner 0.25 µM)
Outline: as §1

[1] = compound: C1=CC=C2C(=C1)N=C(S2)C(C#N)C3=NC(=NC=C3)NCCC4=CN=CC=C4 + Cc1cc(Nc2cc(N3CCN(C)CC3)nc(Sc3ccc(NC(=O)C4CC4)cc3)n2)n[nH]1 [Tozasertib] (partner 0.1 µM)
Outline: as §1

[2] = compound: C1=CC=C2C(=C1)N=C(S2)C(C#N)C3=NC(=NC=C3)NCCC4=CN=CC=C4
Outline: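 Lung cancer cell lines were seeded into 1536-well plates, kept overnight at 37 °C and pinned with five library-drug doses (not always all listed) spaced by √10. After 5 days, nuclei were Hoechst-stained, imaged at 4× and counted with MetaXpress. Viability is treated-well nuclei over vehicle-well nuclei, taken as a median across plates. Plates needed control CV below 25% and at least one doubling.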

| Cell Line | relative viability (CUDC-101 + Lapatinib; first compound 0.01 µM) | relative viability (CUDC-101 + Lapatinib; first compound 0.03162 µM) | relative viability (CUDC-101 + Lapatinib; first compound 0.1 µM) | relative viability (CUDC-101 + Lapatinib; first compound 0.3162 µM) | relative viability (CUDC-101 + Lapatinib; first compound 1 µM) | relative viability (CUDC-101 + Foretinib; first compound 0.01 µM) | relative viability (CUDC-101 + Foretinib; first compound 0.03162 µM) | relative viability (CUDC-101 + Foretinib; first compound 0.1 µM) | relative viability (CUDC-101 + Foretinib; first compound 0.3162 µM) | relative viability (CUDC-101 + Foretinib; first compound 1 µM) | relative viability ([1]; first compound 0.005 µM) | relative viability ([1]; first compound 0.01581 µM) | relative viability ([1]; first compound 0.05 µM) | relative viability ([1]; first compound 0.1581 µM) | relative viability ([1]; first compound 0.5 µM) | relative viability ([2]; 0.005 µM) | relative viability ([2]; 0.01581 µM) | relative viability ([2]; 0.05 µM) | relative viability ([2]; 0.1581 µM) | relative viability ([2]; 0.5 µM) |
| --- | --- | --- | --- | --- | --- | --- | --- | --- | --- | --- | --- | --- | --- | --- | --- | --- | --- | --- | --- | --- |
| EMC-BAC-2 | 0.836 | 0.88 | 0.909 | 0.974 | 0.485 | 1.12 | 0.982 | 0.954 | 1.03 | 0.56 | 0.268 | 0.32 | 0.262 | 0.278 | 0.234 | 1.09 | 0.976 | 0.952 | 1.04 | 0.97 |
| NCI-H1437 | 0.884 | 0.792 | 0.773 | 0.796 | 0.355 | 1.38 | 1.08 | 1.27 | 1.38 | 1.27 | 0.355 | 0.389 | 0.414 | 0.401 | 0.325 | 0.901 | 0.947 | 0.988 | 1.1 | 0.966 |
| NCI-H1944 | 0.777 | 0.747 | 0.799 | 0.709 | 0.5 | 0.931 | 0.691 | 0.861 | 0.612 | 0.397 | 0.275 | 0.255 | 0.25 | 0.269 | 0.24 | 0.914 | 0.956 | 0.958 | 1.03 | 0.951 |
| NCI-H838 | 0.934 | 1 | 1.03 | 1.11 | 0.552 | 1.04 | 1.02 | 1.08 | 1.23 | 0.862 | 0.28 | 0.289 | 0.243 | 0.282 | 0.223 | 0.902 | 0.954 | 0.968 | 1.1 | 0.953 |
| HCC-827 | 0.206 | 0.181 | 0.178 | 0.174 | 0.218 | 1 | 0.436 | 0.203 | 0.153 | 0.167 | 0.366 | 0.425 | 0.424 | 0.438 | 0.394 | 1.07 | 1.1 | 1.01 | 1.11 | 1.05 |
| NCI-H2342 |  |  |  |  |  | 0.995 | 1.02 | 1.03 | 1.08 | 0.946 | 0.403 | 0.522 | 0.499 | 0.47 | 0.456 | 0.82 | 0.978 | 0.874 | 1 | 0.938 |
| LOU-NH91 | 0.843 | 0.772 | 0.764 | 0.825 | 0.641 | 0.862 | 0.634 | 0.552 | 0.589 | 0.584 | 0.652 | 0.606 | 0.599 | 0.689 | 0.59 | 0.954 | 0.875 | 0.815 | 1.02 | 0.916 |
| NCI-H3122 | 1.07 | 0.984 | 0.882 | 1.02 | 1.01 | 1.02 | 0.973 | 0.908 | 0.943 | 0.769 | 0.46 | 0.419 | 0.433 | 0.386 | 0.344 | 0.958 | 0.977 | 0.98 | 1.03 | 0.991 |
| NCI-H1563 | 0.846 | 0.814 | 1.17 | 1.13 | 0.877 | 0.925 | 0.872 | 0.851 | 0.895 | 0.87 |  |  |  |  |  | 0.778 | 0.944 | 0.899 | 0.995 | 0.946 |
| NCI-H1734 | 1.1 | 0.988 | 1.07 | 1.09 | 0.841 | 0.968 | 0.775 | 0.863 | 0.898 | 0.451 |  | 0.247 | 0.248 | 0.264 | 0.267 | 0.787 | 0.91 | 0.963 | 1.14 | 0.871 |
| EPLC-272H | 1.13 | 0.987 | 1 | 0.392 | 0.482 | 0.664 | 0.723 | 0.646 | 0.341 | 0.585 | 0.168 | 0.225 | 0.253 | 0.236 | 0.388 | 0.915 | 0.882 | 0.958 | 1.11 | 0.895 |
| RERF-LC-KJ | 0.893 | 0.905 | 0.841 | 0.826 | 0.698 | 0.884 | 0.889 | 0.791 | 0.812 | 0.644 | 0.535 | 0.549 | 0.507 | 0.472 | 0.413 | 0.988 | 1.04 | 0.953 | 1.07 | 0.895 |
| EBC-1 | 0.224 | 0.212 | 0.214 | 0.215 | 0.196 | 0.0994 | 0.109 | 0.109 | 0.0873 | 0.0665 |  |  |  |  |  | 1.02 | 1.15 | 0.803 | 1.06 | 0.858 |
| HARA | 0.739 | 0.789 | 0.739 | 0.71 | 0.453 | 0.903 | 0.78 | 0.853 | 0.611 | 0.285 | 0.098 | 0.0872 | 0.114 | 0.0978 | 0.118 | 1.1 | 0.769 | 0.994 | 1.09 | 0.93 |
